This note sets out measurements from ChEMBL document CHEMBL4507310, “Data for DCP probe A-1211212” (2021).

Assay [1] deals with Sodium-dependent dopamine transporter (Homo sapiens, UniProt Q01959). Put plainly: GPCRScan assay: inhibition of DAT. Also noted: radioligand conc. used [nm] 3.6 – 16.0, parental cells stable HEK.
In the next assay the target is D(3) dopamine receptor (Homo sapiens, UniProt P35462). The experiment in a line: GPCRScan assay: inhibition of D3. Set-up: radioligand conc. used [nm] 0.5 – 1.8, parental cells HEKT.
Sequence of D(3) dopamine receptor (P35462 whole entry): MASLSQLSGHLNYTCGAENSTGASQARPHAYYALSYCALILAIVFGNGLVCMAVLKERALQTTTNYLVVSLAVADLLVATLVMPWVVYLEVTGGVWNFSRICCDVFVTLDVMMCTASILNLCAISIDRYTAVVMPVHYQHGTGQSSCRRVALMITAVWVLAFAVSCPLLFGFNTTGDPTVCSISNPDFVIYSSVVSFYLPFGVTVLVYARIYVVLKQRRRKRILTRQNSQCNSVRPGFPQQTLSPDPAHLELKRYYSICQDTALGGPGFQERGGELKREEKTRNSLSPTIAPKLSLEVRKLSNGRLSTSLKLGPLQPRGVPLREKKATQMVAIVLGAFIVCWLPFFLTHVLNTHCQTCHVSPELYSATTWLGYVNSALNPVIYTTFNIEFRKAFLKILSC
Another assay deals with RS4-11. The experiment in a line: CellTiter-Glo Luminescent Cell Viability Assay with RS4-11 cells (BCL-2 dependent cell line). It counts as functional, cell-based. The conditions noted are these: Homo sapiens.
The target in assay [2] is Kappa-type opioid receptor (Homo sapiens) (UniProt P41145). Particulars: Compound concentration 10.0 uM; call rule not given here.
Sequence of Kappa-type opioid receptor (Homo sapiens) (P41145 whole entry): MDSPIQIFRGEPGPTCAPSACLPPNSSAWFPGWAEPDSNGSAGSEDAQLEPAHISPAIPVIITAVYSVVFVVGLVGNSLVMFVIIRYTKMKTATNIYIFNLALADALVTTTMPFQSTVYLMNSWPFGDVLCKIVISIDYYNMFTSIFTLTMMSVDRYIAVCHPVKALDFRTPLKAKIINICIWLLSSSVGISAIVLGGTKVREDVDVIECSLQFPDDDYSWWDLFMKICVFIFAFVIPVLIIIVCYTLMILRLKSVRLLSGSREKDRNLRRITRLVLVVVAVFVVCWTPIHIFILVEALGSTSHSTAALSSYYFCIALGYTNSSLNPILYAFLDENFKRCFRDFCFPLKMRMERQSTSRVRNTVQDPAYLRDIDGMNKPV
Assay [3] has as its target Sodium-dependent noradrenaline transporter (Homo sapiens) (UniProt P23975). Particulars: Compound concentration 10.0 uM.
Assay [4] concerns the target Induced myeloid leukemia cell differentiation protein Mcl-1 (Homo sapiens, UniProt Q07820). The experiment in a line: Time-resolved fluorescence energy transfer (TR-FRET) with MCL1.
Assay [5] has as its target D(4) dopamine receptor (Homo sapiens) (UniProt P21917). The conditions noted are these: Compound concentration 10.0 uM.
Assay [6] deals with 5-hydroxytryptamine receptor 6 (Homo sapiens) (UniProt P50406). Particulars: Compound concentration 10.0 uM.
Sequence of 5-hydroxytryptamine receptor 6 (Homo sapiens) (P50406 whole entry): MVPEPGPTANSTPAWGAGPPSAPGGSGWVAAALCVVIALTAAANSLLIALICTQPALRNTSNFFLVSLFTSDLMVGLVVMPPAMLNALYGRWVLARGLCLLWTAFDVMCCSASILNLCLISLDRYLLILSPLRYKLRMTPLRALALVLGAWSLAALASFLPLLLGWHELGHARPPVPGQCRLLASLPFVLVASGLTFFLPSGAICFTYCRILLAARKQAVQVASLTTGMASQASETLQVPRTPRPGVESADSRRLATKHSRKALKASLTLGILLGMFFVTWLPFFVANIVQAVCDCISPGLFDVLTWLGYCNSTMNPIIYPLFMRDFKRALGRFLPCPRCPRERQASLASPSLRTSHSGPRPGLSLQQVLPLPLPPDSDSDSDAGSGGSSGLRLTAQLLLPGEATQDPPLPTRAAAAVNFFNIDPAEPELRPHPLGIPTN
Another assay relates to AMO1. The experiment in a line: CellTiter-Glo Luminescent Cell Viability Assay ( MCL-1 dependent cell line AMO-1). It counts as functional, cell-based. The conditions noted are these: Homo sapiens.
Assay [7] concerns the target Alpha-1D adrenergic receptor (Homo sapiens) (UniProt P25100). Particulars: Compound concentration 10.0 uM.
Assay [8] has as its target Beta-2 adrenergic receptor (Homo sapiens) (UniProt P07550). Particulars: Compound concentration 10.0 uM.

Sequence of Sodium-dependent dopamine transporter (Q01959 whole entry): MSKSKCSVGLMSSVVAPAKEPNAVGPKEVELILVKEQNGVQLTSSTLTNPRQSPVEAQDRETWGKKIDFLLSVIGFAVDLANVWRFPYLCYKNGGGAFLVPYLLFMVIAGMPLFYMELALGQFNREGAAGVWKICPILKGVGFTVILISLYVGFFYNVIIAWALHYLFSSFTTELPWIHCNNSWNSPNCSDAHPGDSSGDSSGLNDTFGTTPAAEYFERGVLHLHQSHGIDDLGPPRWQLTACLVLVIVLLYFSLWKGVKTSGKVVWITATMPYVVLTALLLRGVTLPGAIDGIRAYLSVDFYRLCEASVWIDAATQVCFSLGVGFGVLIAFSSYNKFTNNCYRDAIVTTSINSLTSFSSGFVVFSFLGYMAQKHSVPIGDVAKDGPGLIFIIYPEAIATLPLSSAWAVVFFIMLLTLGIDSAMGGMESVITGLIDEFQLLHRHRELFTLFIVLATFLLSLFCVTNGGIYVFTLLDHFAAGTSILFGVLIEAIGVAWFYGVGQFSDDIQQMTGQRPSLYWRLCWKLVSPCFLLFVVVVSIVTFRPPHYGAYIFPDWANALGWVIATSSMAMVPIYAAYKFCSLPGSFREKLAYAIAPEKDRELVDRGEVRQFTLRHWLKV
Sequence of Induced myeloid leukemia cell differentiation protein Mcl-1 (Q07820 whole entry): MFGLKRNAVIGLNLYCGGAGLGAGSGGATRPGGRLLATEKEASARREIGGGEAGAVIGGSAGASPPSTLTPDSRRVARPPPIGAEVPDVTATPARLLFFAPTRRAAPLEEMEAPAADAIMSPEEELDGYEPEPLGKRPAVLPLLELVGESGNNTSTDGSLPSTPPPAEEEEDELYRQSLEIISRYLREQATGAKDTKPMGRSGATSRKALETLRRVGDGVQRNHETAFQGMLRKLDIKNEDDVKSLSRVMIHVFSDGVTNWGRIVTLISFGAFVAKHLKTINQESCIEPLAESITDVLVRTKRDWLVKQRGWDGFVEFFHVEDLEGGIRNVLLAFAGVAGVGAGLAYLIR
Sequence of D(4) dopamine receptor (Homo sapiens) (P21917 whole entry): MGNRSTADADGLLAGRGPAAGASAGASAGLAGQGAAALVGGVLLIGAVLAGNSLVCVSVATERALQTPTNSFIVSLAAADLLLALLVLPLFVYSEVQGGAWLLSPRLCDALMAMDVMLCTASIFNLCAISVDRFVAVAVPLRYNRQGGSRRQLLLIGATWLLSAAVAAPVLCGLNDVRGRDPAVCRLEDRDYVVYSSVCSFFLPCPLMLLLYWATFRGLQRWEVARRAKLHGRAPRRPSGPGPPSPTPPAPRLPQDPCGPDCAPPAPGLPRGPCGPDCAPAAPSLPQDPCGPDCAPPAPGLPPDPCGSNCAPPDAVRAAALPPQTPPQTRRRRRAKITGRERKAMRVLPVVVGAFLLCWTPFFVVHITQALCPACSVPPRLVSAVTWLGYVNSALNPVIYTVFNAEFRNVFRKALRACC
Sequence of Alpha-1D adrenergic receptor (Homo sapiens) (P25100 whole entry): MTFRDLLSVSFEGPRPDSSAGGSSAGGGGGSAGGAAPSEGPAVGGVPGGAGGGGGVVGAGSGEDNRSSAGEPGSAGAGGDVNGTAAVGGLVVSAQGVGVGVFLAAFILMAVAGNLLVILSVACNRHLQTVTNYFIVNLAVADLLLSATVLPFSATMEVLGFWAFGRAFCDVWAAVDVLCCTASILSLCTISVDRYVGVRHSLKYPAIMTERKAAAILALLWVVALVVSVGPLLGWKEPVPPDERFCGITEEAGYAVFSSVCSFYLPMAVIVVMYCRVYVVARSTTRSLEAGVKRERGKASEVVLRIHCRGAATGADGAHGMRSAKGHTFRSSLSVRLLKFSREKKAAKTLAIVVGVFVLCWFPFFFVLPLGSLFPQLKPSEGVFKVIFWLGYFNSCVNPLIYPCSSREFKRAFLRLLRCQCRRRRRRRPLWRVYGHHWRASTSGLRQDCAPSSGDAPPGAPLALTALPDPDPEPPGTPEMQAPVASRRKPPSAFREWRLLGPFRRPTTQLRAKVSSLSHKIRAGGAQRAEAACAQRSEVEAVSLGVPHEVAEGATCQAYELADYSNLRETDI
Sequence of Sodium-dependent noradrenaline transporter (Homo sapiens) (P23975 whole entry): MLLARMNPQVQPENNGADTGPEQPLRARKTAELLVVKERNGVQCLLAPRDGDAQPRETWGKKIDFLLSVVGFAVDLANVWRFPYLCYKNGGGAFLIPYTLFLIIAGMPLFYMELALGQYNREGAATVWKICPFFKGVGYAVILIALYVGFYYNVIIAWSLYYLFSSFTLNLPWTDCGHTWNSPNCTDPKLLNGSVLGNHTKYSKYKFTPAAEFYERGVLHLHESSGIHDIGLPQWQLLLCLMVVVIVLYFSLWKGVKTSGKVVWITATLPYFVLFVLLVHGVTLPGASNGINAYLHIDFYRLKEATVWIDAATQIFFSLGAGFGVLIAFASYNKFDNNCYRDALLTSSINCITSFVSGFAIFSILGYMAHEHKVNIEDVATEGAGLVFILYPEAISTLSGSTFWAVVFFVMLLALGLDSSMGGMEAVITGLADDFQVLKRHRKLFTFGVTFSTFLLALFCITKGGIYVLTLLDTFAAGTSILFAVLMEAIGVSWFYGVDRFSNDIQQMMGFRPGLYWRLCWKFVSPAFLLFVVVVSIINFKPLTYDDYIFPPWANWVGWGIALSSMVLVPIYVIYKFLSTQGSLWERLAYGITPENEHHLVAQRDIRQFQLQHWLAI
Sequence of Beta-2 adrenergic receptor (Homo sapiens) (P07550 whole entry, looked up): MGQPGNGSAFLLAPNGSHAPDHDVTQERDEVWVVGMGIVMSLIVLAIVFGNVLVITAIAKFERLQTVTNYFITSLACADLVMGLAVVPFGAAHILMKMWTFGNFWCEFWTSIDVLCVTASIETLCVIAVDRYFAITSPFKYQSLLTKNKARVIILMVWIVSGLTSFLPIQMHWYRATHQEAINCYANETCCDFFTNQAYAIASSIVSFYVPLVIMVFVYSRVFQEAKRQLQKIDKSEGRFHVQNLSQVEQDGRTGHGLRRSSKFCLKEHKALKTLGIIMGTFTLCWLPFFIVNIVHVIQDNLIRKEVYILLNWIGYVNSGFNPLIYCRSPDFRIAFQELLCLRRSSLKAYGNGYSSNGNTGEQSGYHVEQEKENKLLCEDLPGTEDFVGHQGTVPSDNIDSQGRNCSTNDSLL

With `O=C(NS(=O)(=O)c1ccc(NCC2CCOCC2)c([N+](=O)[O-])c1)c1ccc(N2CCN(Cc3ccc(C(F)(F)F)cc3-c3ccc(Cl)cc3)CC2)cc1Oc1cnc2[nH]ccc2c1` [A-1210227], the results for the Ki (in assay [1] (read-out: Ki); in assay [1] (read-out: pKi (converted)); on D(3) dopamine receptor) were 9.8 µM, 9.77 µM and 10 µM, respectively. Further, the EC50 in the assay on RS4-11 is given as > 5 µM (not active). The inhibition in assay [2] is -0.08%.

Consider `CO[C@H]1CC[C@H](CNc2ccc(S(=O)(=O)NC(=O)c3ccc(N4CCN(CC5=C(c6ccc(Cl)cc6)CC(C)(C)CC5)CC4)cc3Oc3cnc4[nH]ccc4c3)cc2[N+](=O)[O-])CC1` [A-1211212], for which the inhibition is 39.5% in [3]; -4.72% in assay [5]; -8.56% in assay [6]; -9.01% in assay [7]; 21.3% in assay [8]. In [4], the IC50 is reported as 2.05 µM (not active). The concentration for a half-maximal effect (EC50) with AMO1 was > 1 µM (not active).
